# T1: human calcium-sensing receptor (CaSR) (Homo sapiens, UniProt P41180)
# T1 construct: expressed in transfected cells
# T1 sequence (P41180 20-1078): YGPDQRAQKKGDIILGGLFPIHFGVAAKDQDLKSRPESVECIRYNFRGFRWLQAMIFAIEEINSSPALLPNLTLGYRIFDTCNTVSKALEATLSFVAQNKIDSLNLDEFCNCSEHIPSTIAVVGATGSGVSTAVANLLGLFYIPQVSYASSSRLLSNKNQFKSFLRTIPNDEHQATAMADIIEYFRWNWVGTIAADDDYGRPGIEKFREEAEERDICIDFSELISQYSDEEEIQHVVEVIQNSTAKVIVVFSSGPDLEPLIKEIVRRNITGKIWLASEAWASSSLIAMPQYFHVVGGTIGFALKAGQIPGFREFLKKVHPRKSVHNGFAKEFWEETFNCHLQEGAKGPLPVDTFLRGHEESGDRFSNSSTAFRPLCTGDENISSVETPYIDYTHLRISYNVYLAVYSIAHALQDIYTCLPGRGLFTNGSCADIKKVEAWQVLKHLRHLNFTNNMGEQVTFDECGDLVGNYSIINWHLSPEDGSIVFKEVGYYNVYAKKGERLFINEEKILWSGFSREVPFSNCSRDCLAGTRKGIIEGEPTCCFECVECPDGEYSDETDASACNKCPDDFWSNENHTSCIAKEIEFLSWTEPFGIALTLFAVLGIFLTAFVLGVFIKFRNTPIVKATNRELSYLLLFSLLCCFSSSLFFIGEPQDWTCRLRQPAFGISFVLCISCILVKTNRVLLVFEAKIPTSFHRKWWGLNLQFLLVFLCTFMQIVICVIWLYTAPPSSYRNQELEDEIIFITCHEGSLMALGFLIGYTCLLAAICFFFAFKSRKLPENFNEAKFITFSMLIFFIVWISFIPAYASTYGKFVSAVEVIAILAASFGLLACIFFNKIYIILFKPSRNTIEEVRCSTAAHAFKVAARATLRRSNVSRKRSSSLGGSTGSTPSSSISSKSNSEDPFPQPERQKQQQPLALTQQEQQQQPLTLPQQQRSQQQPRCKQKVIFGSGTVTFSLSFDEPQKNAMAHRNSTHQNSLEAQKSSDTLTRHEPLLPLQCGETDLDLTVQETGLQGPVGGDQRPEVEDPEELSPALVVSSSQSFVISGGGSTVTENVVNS
# Assays:
# [1] = system: PTH concentration in blood; type: in vivo; conditions: for death or abnormality of the rat administered with the compounds: 0.1-100 mg/kg intravenous or oral; for PTH concentration in blood after 30 minutes / dose dependence of PTH concentration increase / PTH concentration in blood 5 minutes after the intravenous administration: rat, 0.1-100 mg/kg; for PTH concentration in blood 5 minutes after the intravenous administration: Rat Intact PTH ELISA, versus normal value
# Protocol: Compounds of Exp. 3-49, Exp. 3-57, Exp. 3-93, Exp. 3-95, Exp. 3-102, Exp. 3-106, Exp. 8-5, Exp. 10-1 and Exp. 10-25 were chosen as a test compound. Each of them was either dissolved or suspended in physiological saline or distilled water containing 1-20% DMSO, 5% CremophorEL, 10-40% PEG300, etc. and administered intravenously (tail vein or femoral vein) or orally administered to a 7 week to 10 week old male SD-IGS rat (Nippon Charles-River) with dosage of 0.1-100 mg/kg. After that, blood sample was taken from subclavian vein over the time and serum was separated. Concentration of PTH in blood was measured using Rat Intact PTH ELISA Kit (manufactured by Immutopics) to evaluate an activity of increasing PTH concentration in blood. […] Therefore, the safety of these compounds was confirmed again.
# [2] = molecular target: T1, human calcium-sensing receptor (CaSR); experiment: intracellular Ca assay, CaSR antagonist activity in HEK293/hCaSR cells; type: cell-based; conditions: Fura2-AM, inhibition of response to calcium chloride ligand solution, read-out: IC50 values according to the intracellular Ca assay (CaSR antagonist activity)
# How it was run: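 HEK293/hCaSR cells were loaded with Fura2-AM and pre-incubated with compound for 160 s at 37° C in HEPES buffer (pH 7.4, 0.8 mM CaCl2), then challenged with calcium ligand solution. Read-out was the peak 340/380 nm fluorescence ratio; inhibition is relative to no-compound (0%) and no-calcium-ligand (100%) controls.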
# [3] = oral everyday for eight weeks, rat with removed ovary; cited from earlier work
# [4] = system: PTH concentration in blood; conditions: single oral administration, rat; cited from earlier work
# [5] = PTH 20 μg subcutaneous everyday; ALN 10 mg oral everyday; cited from earlier work
# [6] = 20 μg subcutaneously everyday for 19 months in average; cited from earlier work
Molecule,death or abnormality of the rat administered with the compounds [1],PTH concentration in blood after 30 minutes [1],dose dependence of PTH concentration increase [1],PTH concentration in blood 5 minutes after the intravenous administration [1],IC50 [2],further results
"CN(C[C@H](O)CNC(C)(C)CC1Cc2ccccc2C1)S(=O)(=O)c1ccc(-c2ccc(CCC(=O)O)cc2)c(Cl)c1 [Exp. 3-106, (R)-3-(2′-chloro-4′-(N-(3-(1-(2,3-dihydro-1H-inden-2-yl)-2-methylpropan-2-ylamino)-2-hydroxypropyl)-N-methylsulfamoyl)biphenyl-4-yl)propionic acid]",no death or abnormality was found,returned to a normal value,dependent on the administration amount of the compound,increased at least twice the normal value,≤ 300 nM,
CC(C)(Cc1ccc2ccccc2c1)NC[C@@H](O)COc1cccc(Cl)c1C#N [NPS2143],,,,,,bone formation evaluated by bone morphometry [3]: increased; bone mineral density [3]: remained almost the same; PTH concentration in blood [4]: continuously increased
"CN(C[C@H](O)CNC(C)(C)CC1Cc2ccccc2C1)S(=O)(=O)c1cccc(-c2cccc(C(=O)O)c2)c1 [Exp. 3-49, (R)-3′-(N-(3-(1-(2,3-dihydro-1H-inden-2-yl)-2-methylpropan-2-ylamino)-2-hydroxypropyl)-N-methylsulfamoyl)biphenyl-3-carboxylic acid]",no death or abnormality was found,returned to a normal value,dependent on the administration amount of the compound,increased at least twice the normal value,≤ 300 nM,
"CN(C[C@H](O)CNC(C)(C)CC1Cc2ccccc2C1)S(=O)(=O)c1cc(-c2ccc(CCC(=O)O)cc2)cc(C(F)(F)F)c1 [Exp. 3-93, (R)-3-(3′-(N-(3-(1-(2,3-dihydro-1H-inden-2-yl)-2-methylpropan-2-ylamino)-2-hydroxypropyl)-N-methylsulfamoyl)-5′-(trifluoromethyl)biphenyl-4-yl)propionic acid]",no death or abnormality was found,returned to a normal value,dependent on the administration amount of the compound,increased at least twice the normal value,≤ 300 nM,
"CN(C[C@H](O)CNC(C)(C)CCCc1ccccc1)S(=O)(=O)c1cc(CCC(=O)O)cc(C(F)(F)F)c1 [Exp. 8-5, (R)-3-(3-(N-(2-hydroxy-3-(2-methyl-5-phenylpentan-2-ylamino)propyl)-N-methylsulfamoyl)-5-(trifluoromethyl)phenyl)propionic acid]",no death or abnormality was found,returned to a normal value,dependent on the administration amount of the compound,increased at least twice the normal value,≤ 300 nM,
"CN(C[C@H](O)CNC(C)(C)CC1Cc2ccccc2C1)S(=O)(=O)c1cc(CCCC(=O)O)cc(C(F)(F)F)c1 [Exp. 10-25, (R)-4-(3-(N-(3-(1-(2,3-dihydro-1H-inden-2-yl)-2-methylpropan-2-ylamino)-2-hydroxypropyl)-N-methylsulfamoyl)-5-(trifluoromethyl)phenyl)butanoic acid]",no death or abnormality was found,returned to a normal value,dependent on the administration amount of the compound,increased at least twice the normal value,,
"CN(C[C@H](O)CNC(C)(C)CC1Cc2ccccc2C1)S(=O)(=O)c1cc(CCC(=O)O)cc(C(F)(F)F)c1 [Exp. 10-1, (R)-3-(3-(N-(3-(1-(2,3-dihydro-1H-inden-2-yl)-2-methylpropan-2-ylamino)-2-hydroxypropyl)-N-methylsulfamoyl)-5-(trifluoromethyl)phenyl)propionic acid]",no death or abnormality was found,returned to a normal value,dependent on the administration amount of the compound,increased at least twice the normal value,,
"CCc1cc(-c2ccc(CCC(=O)O)cc2)ccc1S(=O)(=O)N(C)C[C@H](O)CNC(C)(C)CC1Cc2ccccc2C1 [Exp. 3-102, (R)-3-(4′-(N-(3-(1-(2,3-dihydro-1H-inden-2-yl)-2-methylpropan-2-ylamino)-2-hydroxypropyl)-N-methylsulfamoyl)-3′-ethylbiphenyl-4-yl)propionic acid]",no death or abnormality was found,returned to a normal value,dependent on the administration amount of the compound,increased at least twice the normal value,,
"CN(C[C@H](O)CNC(C)(C)Cc1ccc(Cl)c(F)c1)S(=O)(=O)c1cc(-c2ccc(CCC(=O)O)cc2)cc(C(F)(F)F)c1 [Exp. 3-95, (R)-3-(3′-(N-(3-(1-(4-chloro-3-fluorophenyl)-2-methylpropan-2-ylamino)-2-hydroxypropyl)-N-methylsulfamoyl)-5′-(trifluoromethyl)biphenyl-4-yl)propionic acid]",no death or abnormality was found,returned to a normal value,dependent on the administration amount of the compound,increased at least twice the normal value,,
"CN(C[C@H](O)CNC(C)(C)CC1Cc2ccccc2C1)S(=O)(=O)c1cccc(-c2ccc(CCC(=O)O)cc2)c1 [Exp. 3-57, (R)-3-(3′ (N-(3-(1-(2,3-dihydro-1H-inden-2-yl)-2-methylpropan-2-ylamino)-2-hydroxypropyl)-N-methylsulfamoyl)biphenyl-4-yl)propionic acid]",no death or abnormality was found,returned to a normal value,dependent on the administration amount of the compound,increased at least twice the normal value,300 to 1000 nM,
"PTH: parathyroid hormone (PTH) preparation, a peptide preparation injected subcutaneously (peptide, UniProt P01270 32-115, looked up, Parathyroid hormone, parathyroid hormone (PTH) preparation, a peptide preparation injected subcutaneously) Parathyroid hormone: SVSEIQLMHNLGKHLNSMERVEWLRKKLQDVHNFVALGAPLAPRDAGSQRPRKKEDNVLVESHEKSLGEADKADVNVLTKAKSQ",,,,,,increase of bone mineral density of lumbar spine 18 months after the administration [5]: 10.3%; bone mineral density increase in lumbar spine [6]: 9.7%; bone mineral density increase in neck of femur [6]: 2.8%; inhibition of frequency of occurrence of new vertebral body fracture [6]: 65%; inhibition of frequency of occurrence of non-vertebral body fracture [6]: 53%

# Source: patent US8039514B2, “Sulfonamide compounds and use thereof” (Asahi Kasei Pharma Corporation, priority 2008, dated 2011)
